How the values were obtained:
[1] = Particle size, PDI and encapsulation efficiency of LNP@mRNA; type: physicochemical; conditions: Example 26: LNP@mRNA of compound, cholesterol, DOPE, PEG-DMG 35:46.5:16:2.5; luciferase mRNA
Protocol: (§1) Compounds 1, 2, 17, 27 or 33 was each dissolved in the first solution with cholesterol, DOPE and PEG-DMG in a molar ratio of 35:46.5:16:2.5, and luciferase mRNA was dissolved in the second solution. […] Microfluidics was utilized to quickly mix the two phases, and dialysis or tangential flow was utilized to replace the buffer environment with PBS (pH 7.4) and thus remove ethanol, so as to prepare and afford five kinds of LNP@mRNAs, respectively.
Microfluidics was utilized to quickly mix the two phases, and dialysis or tangential flow was utilized to replace the buffer environment with PBS (pH 7.4) and thus remove ethanol, so as to prepare and afford LNP@mRNA.
The particle size, PDI and encapsulation efficiency of each of the above-mentioned LNP@mRNAs were determined, and the results were successively shown in Table 3.

[2] = as above; type: physicochemical; conditions: Example 26 LNP@mRNA, summary of Table 1
mice [3] = assay: Organ distribution of mRNA expression in mice after intravenous (tail vein) injection of LNP@mRNA; type: in vivo; conditions: 6 hours after intravenous (tail vein) injection, anatomical image
Protocol: as §1
(§2) The prepared LNP@mRNAs were each injected into mice via tail vein or muscle, and the fluorescence intensities and organ distribution in mice were determined 6 hours later.

mice [4] = assay: Fluorescence intensity in mice after intramuscular injection of LNP@mRNA (luciferase mRNA); type: in vivo; conditions: for maximum fluorescence intensity: intramuscular injection of LNP@mRNA (compound and other three lipids), FIG. 7
Protocol: as §1, §2
The prepared mRNA@LNPs were each injected into mice via intramuscular injection, and the fluorescence intensities and organ distribution in mice were determined 6 hours later.

SMILES | Encapsulation efficiency [1] [%] | PDI [1] | Particle size [1] [nm] | encapsulation efficiency (in words) [2] | particle size (in words) [2] | mRNA expression in liver (mice [3]) | mRNA expression in spleen (mice [3]) | maximum fluorescence intensity (mice [4]) | expression relative to LNP@mRNA prepared by Compound 27 (mice [4]; intramuscular injection, ratio of maximum fluorescence intensities) [times]
CCCCCCC(CCCC)C(=O)OCCN(CCCN(C)CCCN(CCOC(=O)C(CCCC)CCCCCC)CCOC(=O)C(CCCC)CCCCCC)CCOC(=O)C(CCCC)CCCCCC (centres unmarked) [Compound 2] | 86 | 0.20 | 84 | relatively high encapsulation efficiency | relatively small particle size | few mRNA was expressed in liver | mainly expressed in spleen |  | 
CCCCCCCCC(CCCCCC)C(=O)OCCCCCCN(CCCCCCOC(=O)C(CCCCCC)CCCCCCCC)CCCN(C)CCCN(CCCCCCOC(=O)C(CCCCCC)CCCCCCCC)CCCCCCOC(=O)C(CCCCCC)CCCCCCCC (centres unmarked) [Compound 17] | 96 | 0.19 | 184 | relatively high encapsulation efficiency |  |  |  |  | 
CCCCCCC(CCCC)C(=O)OCCCCOC(=O)CCN(CCCN(C)CCCN(CCC(=O)OCCCCOC(=O)C(CCCC)CCCCCC)CCC(=O)OCCCCOC(=O)C(CCCC)CCCCCC)CCC(=O)OCCCCOC(=O)C(CCCC)CCCCCC (centres unmarked) [Compound 33] | 96 | 0.11 | 86 | relatively high encapsulation efficiency | relatively small particle size | mainly expressed in liver | some mRNA was expressed in spleen | 1.59*10^7 | 46.9

The next lines start with results.

Encapsulation efficiency [1] [%] | PDI [1] | Particle size [1] [nm] | encapsulation efficiency (in words) [2] | particle size (in words) [2] | SMILES | mRNA expression in liver (mice [3]) | mRNA expression in spleen (mice [3]) | maximum fluorescence intensity (mice [4]) | expression relative to LNP@mRNA prepared by Compound 27 (mice [4]; intramuscular injection, ratio of maximum fluorescence intensities) [times]
96 | 0.14 | 95 | relatively high encapsulation efficiency | relatively small particle size | CCCCCCCCC(CCCCCC)C(=O)OCCN(CCCN(C)CCCN(CCOC(=O)C(CCCCCC)CCCCCCCC)CCOC(=O)C(CCCCCC)CCCCCCCC)CCOC(=O)C(CCCCCC)CCCCCCCC (centres unmarked) [Compound 1] |  |  |  | 
57 | 0.21 | 90 |  | relatively small particle size | CCCCCCC(CCCC)C(=O)OCCCCCCN(CCCCCCOC(=O)C(CCCC)CCCCCC)CCCN(C)CCCN(CCCCCCOC(=O)C(CCCC)CCCCCC)CCCCCCOC(=O)C(CCCC)CCCCCC (centres unmarked) [Compound 27] | few mRNA was expressed in liver | mainly expressed in spleen | 3.39*10^5 | 
